The values that follow come from patent US20240115545A1, “PHARMACEUTICAL COMPOSITION CONTAINING B-LAPACHONE AS ACTIVE INGREDIENT FOR PREVENTION OR TREATMENT OF CHOLESTATIC LIVER DISEASE” (CUROME BIOSCIENCES CO., LTD., priority 2020, published 2024).

For assay [1], the system named is DDC-induced cholestatic liver disease mice. As to the kind of experiment: H&E histology of portal vein and bile duct lesions, preventive β-lapachone in DDC-induced cholestatic liver disease mice. The format is in vivo. The procedure:
DDC-induced cholestatic liver disease mouse animal models were prepared according to the method of Elisa Pose et al. by using 8-week-old C57BL/6 male mice (Samtako, Korea). Briefly, cholestatic liver disease was induced by feeding a standard rodent diet supplemented with 0.1% (w/w) DDC for 7 or 14 days. The 12-hour light and dark cycle was maintained and animals were allowed to free access to water. The standard rodent diet included medium wheat, wheat, corn, and corn gluten flour, and soybean oil (14% protein). All animal related procedures were reviewed and approved by the Institutional Animal Care and Use Committee of Korea Research Institute of Bioscience and Biotechnology (KRIBB), KRIBB-AEC-20165). The tissue staining of the cholestatic liver disease animal models was measured through H&E staining (basic tissue staining), Sirius Red staining (collagen staining), and Masson's trichrome staining (collagen, cytoplasm, muscle fibers, etc.), and the tissue staining was measured by a skilled researcher. After the mice were fed a diet containing 0.1% DDC for 14 days, tissue staining was performed for inflammation, fibrosis, and adhesion molecules around the portal vein, and the results are shown in FIG. 1. […]

For assay [2], the system named is inflammatory cytokine factors in the colon tissue. As to the kind of experiment: mRNA levels of inflammatory cytokine factors in colon tissue of DSS mice (Example 6.2). The note with it: DSS + β-lapachone 80 mg/kg. Format: in vivo. The procedure:
After 8-week-old C57BL/6 female mice (Samtako, Korea) were divided into each group (=10), each experimental group was fed a standard rodent diet supplemented with 3% (w/w) DSS in drinking water for the first 5 days to induce acute colitis and orally administered control (vehicle), β-lapachone 40 mg/kg, and β-lapachone 80 mg/kg for 14 days.
By the same method as in Example 6.1, experimental groups were divided into a DSS untreated group (Control), a DSS treated group, and a DSS+β-lapachone 80 mg/kg treated group, respectively, and treated. After the end of the experiment, the mice were sacrificed to remove the colon, and the accurate colon length was measured using a Vernier caliper, and is shown FIGS. 11A and 11B. In addition, the mRNA levels of genes of interleukin-1beta (IL-1β), interleukin-6 (IL-6), interleukin-18 (IL-18), interferon-γ (INF-γ), tumor necrosis factor-α (TNF-α), tumor necrosis factor-β (TNF-β), and monocyte chemoattractant protein-1 (MCP-1), which were inflammatory cytokine factors in the colon tissue, were analyzed by a real-time polymerase chain reaction through a conventional experiment procedure, and are shown in FIG. 12.

For assay [3], the system named is macrophage line Raw264.7. As to the kind of experiment: IL-1β and TNF-α release (ELISA) from LPS and ATP treated Raw264.7 macrophages. Format: cell-based. The note with it: Raw264.7, LPS 100 ng/ml, 0.2, 0.5, 1, 2 μM β-lapachone 24 hours, ATP 2.5 mM 30 minutes. The procedure: The macrophage line Raw264.7 (ATCC TIB-71, Manassas, VA, USA) was subcultured in DMEM supplemented with 10% FBS and 1% penicillin/streptomycin.
For inflammation induction, RAW264.7 cells were suspended in DMEM containing 2% FBS, inoculated in a 12-well plate to a cell number of 4×10^5/ml, and incubated in 5% CO2 incubator at 37° C. for 24 hours. With replacement with fresh media, the cells were treated with appropriate concentrations of a corresponding substance, LPS (100 ng/ml), and 0.2, 0.5, 1, and 2 μM β-lapachone, cultured for 24 hours, treated with ATP (2.5 mM), and then cultured for additional 30 minutes, and the supernatant was collected. The release of cytokines (IL-1β and TNF-α) of RaW264.7 macrophages was quantified using each cell-free supernatant-ELISA set (Invitrogen, Billerica, MA, USA) by Invitrogen according to the manufacture's instruction, and is shown in FIG. 14.

For `CC1(C)CCC2=C(O1)c1ccccc1C(=O)C2=O` [β-lapachone], the “concentration dependence of lesion reduction of portal vein and bile ducts (H&E)” value in assay [1] (80 mg/kg (BL80) compared with 40 mg/kg (BL40)) is “reduced the lesions of the DDC-treated portal vein and bile ducts depending on the concentration thereof”. Besides, in assay [1] (DDC-BL40 and DDC-BL80 (40 and 80 mg/kg in diet from 3 days before DDC, total 17 days; DDC 14 days) vs DDC-vehicle), the “lesions around the portal vein (PV) and bile ducts (H&E)” value was “significant lesion reductions”. Moreover, in assay [2], the “mRNA level of IL-1β in colon tissue” value was “significantly reduced”, the “mRNA level of IL-6 in colon tissue” value is recorded as “significantly reduced”, the “mRNA level of IL-18 in colon tissue” value is listed as “significantly reduced” and the “mRNA level of INF-γ in colon tissue” value was “significantly reduced”. For the same molecule, in assay [2], the “mRNA level of MCP-1 in colon tissue” value is reported as “significantly reduced”, the “mRNA level of TNF-α in colon tissue” value was “significantly reduced” and the “mRNA level of TNF-β in colon tissue” value was “significantly reduced”. In assay [3], the “expression level of IL-1β protein increased by LPS and ATP” value is on record as “reduced depending on the concentration”; the “expression level of TNF-α protein increased by LPS and ATP” value was “reduced depending on the concentration”.
